# Publication PMC4503454, “A Lead-In with Silibinin Prior to Triple-Therapy Translates into Favorable Treatment Outcomes in Difficult-To-Treat HIV/Hepatitis C Coinfected Patients” (PLoS ONE, 2015)
# Assays:
# [1] = Antiretroviral plasma trough levels before and during silibinin; type: in vivo, human
# Procedure: Plasma samples obtained from HIV-HCV infected individuals were isolated by immediate centrifugation at 1850 X g (3000 rpm) and stored at -80°C. For the plasma quantification of antiretroviral drugs, samples were inactivated for virus at 60°C for 60 minutes. Plasma levels were determined by liquid chromatography coupled with tandem mass spectrometry (LC-MS/MS) after protein precipitation with acetonitrile according to our previously reported validated analytical method. The laboratory participates in an international external quality assurance program for antiretroviral drugs analysis (KKGT, Stichting Kwaliteitsbewaking Klinische Geneesmiddelanalyse en Toxicologie, Association for Quality Assessment in TDM and clinical Toxicology, The Hague, The Netherlands). Plasma trough levels for raltegravir (RAL), darunavir (DRV), atazanavir (ATV), and etravirine (ETV) were graphically extrapolated from measured concentrations, using population pharmacokinetic models previously published. Reference values for efavirenz (EFV) were adopted from a study from Marzolini et al.. The median trough concentrations for these agents in HIV-infected persons receiving the recommended dose are taken from the guidelines for the use of antiretroviral agents in HIV-1 infected adults and adolescents.
# We used an intention-to-continue treatment approach to calculate virologic responses as percentage of patients with undetectable HCV-RNA, using all patients who started treatment as denominator. Plasma concentrations are presented as median (range). Two-tailed paired t-tests were conducted to detect difference in trough levels of antiretroviral drugs between pre- and post-administration of silibinin. GraphPad Prism 6 (GraphPad Software, La Jolla, CA) was used with an alpha of 0.05.
# [2] = set-up: species or system human; conditions: in vivo; for Median Cmax (Range): human, iv, 20 mg/kg/day
# Procedure: To measure silibinin plasma concentration, the plasma concentrations of silibinin isomers (A and B) and silibinin dihydrogen succinate isomers (A and B) were determined by LC/MS-MS. Of note, the range of plasma concentrations of the LC-MS/MS assay was selected according to the levels reported in the study from Sala et al. Briefly, 100 μl of plasma was added to 20 μl of internal standard naringenin (IS) and extracted by protein precipitation. After evaporation and reconstitution, 20 μL was injected into a Select- HSS T3 (2.1x75 mm, 3.5 μm) (Waters, Milford, MA, USA).
# Chromatographic separations were performed using a gradient program with 10 mM ammonium formate containing 0.1% formic acid and acetonitrile with 0.1% formic acid. Analytes were quantified by electrospray ionization-triple quadrupole mass spectrometry using the selected reaction monitoring detection in the negative mode. Importantly, the selected gradient program allows adequate separation to quantify isomers A and B individually. The method has a mean inter-day coefficient of variation (CV) % of <10% and an inter-day deviation from nominal values of <7%.
# Of note, the Cmin of isomer A of both silibinin dihydrogen succinate and silibinin were 2- and 7-fold higher than the corresponding values of isomer B [20].
# [3] = plasma, paired t-test, ATV/r p = 0.89, RAL p = 0.90, ETV, EFV, DRV/r p = 0.14
Compound,"trough level under silibinin coadministration (day 1 vs day 12) [1, 3]",further results
"O=C1Nc2ccc(Cl)cc2[C@@](C#CC2CC2)(C(F)(F)F)O1 [EFV, efavirenz]",–,trough level under silibinin coadministration (day 1 vs day 12) ([1]; in vivo): not influenced
atazanavir/ritonavir [ATV/r],not influenced,–
COc1cc(C2Oc3cc(C4Oc5cc(O)cc(O)c5C(=O)C4O)ccc3OC2CO)ccc1O (centres unmarked) [Silibinin B],–,Median Cmax (Range) [2]: 0.25 (0.08–0.78) μg/mL
"Cc1cc(C#N)cc(C)c1Oc1nc(Nc2ccc(C#N)cc2)nc(N)c1Br [ETV, etravirine]",not influenced,–
darunavir/ritonavir [DRV/r],not influenced,–
COc1cc([C@H]2Oc3cc([C@H]4Oc5cc(O)cc(O)c5C(=O)[C@@H]4O)ccc3O[C@@H]2CO)ccc1O [Silibinin A],–,Median Cmax (Range) [2]: 0.62 (0.29–1.07) μg/mL; Cmin of isomer A relative to isomer B [2]: 7 fold
"Cc1nnc(C(=O)NC(C)(C)c2nc(C(=O)NCc3ccc(F)cc3)c(O)c(=O)n2C)o1 [RAL, raltegravir]",not influenced,–
